Experimental data published in the supplement of paper PMC10307832.

How the values were obtained:
Assay in all cases: relative viability (nuclei count vs DMSO), 5 days (fraction); higher = more cells survive
[1] = compound: CCCS(=O)(=O)Nc1ccc(F)c(C(=O)c2c[nH]c3ncc(-c4ccc(Cl)cc4)cc23)c1F [Vemurafenib] + CC(=O)c1c(C)c2cnc(Nc3ccc(N4CCNCC4)cn3)nc2n(C2CCCC2)c1=O [Palbociclib] (partner 0.5 µM)
Outline: (§1)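 Lung cancer cell lines were pin-tool dosed in 1536-well plates on the day after seeding, with either a lone drug or a fixed anchor-drug dose plus five library-drug doses (not always all listed) in √10 steps. Nuclei were counted on 4× images after 5 days. Relative viability is the ratio of treated-well to vehicle-well nuclei counts, with each value a median of duplicate plates.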

Vemurafenib + Dasatinib = compound: CCCS(=O)(=O)Nc1ccc(F)c(C(=O)c2c[nH]c3ncc(-c4ccc(Cl)cc4)cc23)c1F [Vemurafenib] + Cc1nc(Nc2ncc(C(=O)Nc3c(C)cccc3Cl)s2)cc(N2CCN(CCO)CC2)n1 [Dasatinib] (partner 0.075 µM)
Outline: as §1

OSI-027 + Phenformin = compound: COc1cccc2cc(-c3nc([C@H]4CC[C@H](C(=O)O)CC4)n4ncnc(N)c34)[nH]c12 [OSI-027] + N=C(N)NC(=N)NCCc1ccccc1 [Phenformin] (partner 250 µM)
Outline: as §1

OSI-027 + Lapatinib = compound: COc1cccc2cc(-c3nc([C@H]4CC[C@H](C(=O)O)CC4)n4ncnc(N)c34)[nH]c12 [OSI-027] + CS(=O)(=O)CCNCc1ccc(-c2ccc3ncnc(Nc4ccc(OCc5cccc(F)c5)c(Cl)c4)c3c2)o1 [Lapatinib] (partner 2 µM)
Outline: as §1

| Cell Line | relative viability ([1]; first compound 0.03162 µM) | relative viability ([1]; first compound 0.1 µM) | relative viability ([1]; first compound 0.3162 µM) | relative viability ([1]; first compound 1 µM) | relative viability (Vemurafenib + Dasatinib; first compound 0.03162 µM) | relative viability (Vemurafenib + Dasatinib; first compound 0.1 µM) | relative viability (Vemurafenib + Dasatinib; first compound 0.3162 µM) | relative viability (Vemurafenib + Dasatinib; first compound 1 µM) | relative viability (OSI-027 + Phenformin; first compound 0.01 µM) | relative viability (OSI-027 + Phenformin; first compound 0.03162 µM) | relative viability (OSI-027 + Phenformin; first compound 0.1 µM) | relative viability (OSI-027 + Phenformin; first compound 0.3162 µM) | relative viability (OSI-027 + Phenformin; first compound 1 µM) | relative viability (OSI-027 + Lapatinib; first compound 0.01 µM) | relative viability (OSI-027 + Lapatinib; first compound 0.03162 µM) | relative viability (OSI-027 + Lapatinib; first compound 0.1 µM) | relative viability (OSI-027 + Lapatinib; first compound 0.3162 µM) | relative viability (OSI-027 + Lapatinib; first compound 1 µM) |
| --- | --- | --- | --- | --- | --- | --- | --- | --- | --- | --- | --- | --- | --- | --- | --- | --- | --- | --- |
| NCI-H441 | 0.23 | 0.185 | 0.241 | 0.237 | 0.565 | 0.663 | 0.838 | 0.542 | 0.895 | 0.879 | 0.841 | 0.55 | 0.474 | – | – | – | – | – |
| LCLC-103H | 0.426 | 0.448 | 0.501 | 0.467 | 0.45 | 0.505 | 0.317 | 0.388 | 0.348 | 0.337 | 0.36 | 0.284 | 0.272 | – | – | – | – | – |
| Calu-6 | – | – | – | – | – | – | – | – | – | – | – | – | – | 1.06 | 1.06 | 0.953 | 0.829 | 0.621 |
| ChaGo-K-1 | 0.941 | 0.884 | 0.878 | 0.913 | 0.511 | 0.517 | 0.396 | 0.6 | 0.43 | 0.499 | 0.436 | 0.409 | 0.323 | – | – | – | – | – |
| NCI-H1648 | – | 0.277 | 0.341 | 0.294 | – | – | – | – | – | – | – | – | – | – | – | – | – | – |
| NCI-H596 | – | – | – | – | 0.567 | 0.66 | 0.549 | 0.515 | 0.875 | 0.576 | 0.844 | 0.865 | 0.614 | 1.05 | 1.19 | 0.934 | 0.742 | 0.832 |
| SW 900 | 0.563 | 0.43 | 0.549 | 0.488 | 0.827 | 0.61 | 0.538 | 0.505 | – | 0.45 | 0.633 | 0.474 | 0.347 | – | – | – | – | – |
